The first test has as its system gastric acid secretion. The test can be described thus: Inhibition of pentagastrin-stimulated gastric acid secretion in conscious gastric fistula dogs (intraduodenal administration). The settings on record: Canis lupus familiaris, dose 0.5 μmol/kg, read-out: Effect, % inhibition (peak inhibitory effect on gastric acid secretion). It is filed as in vivo. As to the method: To determine the gastric acid secretion inhibitory properties, experiments have been performed on conscious dogs provided with gastric fistulas of conventional type and duodenal fistulas, the latter ones used for direct intraduodenal administration of the test compounds. After 18 hours starvation and deprivation of water the dogs were given a subcutaneous infusion of pentagastrin (1-4 nmol/kg, h) lasting for 6-7 hours. Gastric juice was collected in consecutive 30 minutes samples. An aliquot of each sample was titrated with 0.1 N NaOH to pH 7.0 for titrable acid concentration using an automatic titrator and pH-meter (Radiometer, Copenhagen, Denmark). Acid output was calculated as mmol H^+ /60 minutes. The percent inhibition compared to control experiments was calculated for each compound and the peak inhibitory effect is given in Table 2 below. […] In the test prior known compounds were compared with the compounds of the present invention as will be evident from the Table 2 below. The following gastric acid inhibiting effect data were obtained for a number of compounds tested according to the method described.
On to `COC(=O)c1cc2nc([S+]([O-])Cc3ncc(C)c(OC)c3C)[nH]c2cc1C` (stereo not shown) [Example 17], for which the inhibition in vivo at 0.5 µmol/kg is 90%.

On to `COC(=O)c1ccc2[nH]c([S+]([O-])C(C)c3ncc(C)cc3C)nc2c1` (stereo not shown) [Example 29], for which the inhibition in vivo at 0.5 µmol/kg came to 40%. As for `COc1c(C)cnc(C[S+]([O-])c2nc3cc(Cl)ccc3[nH]2)c1C` (stereo not shown) [Example 26], the inhibition in vivo at 0.5 µmol/kg amounted to 25%. On the same count and under the same terms, to `COc1c(C)cnc(C[S+]([O-])c2nc3cc(C(C)=O)ccc3[nH]2)c1C` (stereo not shown) [Example 21] belongs 60%; to `COCCOc1ccnc(C[S+]([O-])c2nc3cc(C)ccc3[nH]2)c1` (stereo not shown) [Example 27], 30%; to `COC(=O)c1ccc2[nH]c([S+]([O-])Cc3ncc(C)c(OC)c3C)nc2c1` (stereo not shown) [Example 20], 65%. `COc1c(C)cnc(C[S+]([O-])c2nc3ccccc3[nH]2)c1C` (stereo not shown) [Example 25]: the inhibition in vivo at 0.5 µmol/kg amounted to 60%. Same read-out and setting: for `COC(=O)c1cc2nc([S+]([O-])Cc3nccc(OC)c3C)[nH]c2cc1C` (stereo not shown) [Example 16] the value was 65%; for `COc1c(C)cnc(C[S+]([O-])c2nc3cc(C(C)=O)c(C)cc3[nH]2)c1C` (stereo not shown) [Example 11], 70%; for `COc1ccc2[nH]c([S+]([O-])Cc3ncc(C)c(OC)c3C)nc2c1` (stereo not shown) [Example 23], 65%.

`COc1c(C)cnc(C[S+]([O-])c2nc3cc(C)ccc3[nH]2)c1C` (stereo not shown) [Example 24]: the inhibition in vivo at 0.5 µmol/kg is 50%. As for `CCOC(=O)c1ccc2[nH]c([S+]([O-])Cc3ncc(C)c(OC)c3C)nc2c1` (stereo not shown) [Example 28], the inhibition in vivo at 0.5 µmol/kg is 50%.

Still in this test, the particulars now being: Canis lupus familiaris, dose 1 μmol/kg, read-out: Effect, % inhibition (peak inhibitory effect on gastric acid secretion).
On to `CC(=O)c1cc2nc([S+]([O-])Cc3nccc(C)c3C)[nH]c2cc1C` (stereo not shown) [Example 4], for which the inhibition in vivo at 1 µmol/kg was 60%.

The test is the same for the next values; noted with them: Canis lupus familiaris, dose 2 μmol/kg, read-out: Effect, % inhibition (peak inhibitory effect on gastric acid secretion).
For `CC(=O)c1cc2nc([S+]([O-])Cc3cc(C)c(C)cn3)[nH]c2cc1C` (stereo not shown) [Example 1, 2-[2-(4,5-di-methyl)pyridylmethylsulfinyl]-(5-acetyl-6-methyl)benzimidazole], the inhibition in vivo at 2 µmol/kg was found to be 90%. The same measure, in the same setting: to `COC(=O)c1ccc2[nH]c([S+]([O-])Cc3ncc(C)cc3C)nc2c1` (stereo not shown) [Example 19] belongs 60%.

As to `COC(=O)c1cc2nc([S+]([O-])Cc3cc(C)c(C)cn3)[nH]c2cc1C` (stereo not shown) [Example 2], the inhibition in vivo at 2 µmol/kg was 60%. As to `COc1ccnc(C[S+]([O-])c2nc3c(C)cc(C)cc3[nH]2)c1` (stereo not shown) [Example 10], the inhibition in vivo at 2 µmol/kg was found to be 40%. Regarding `COC(=O)c1cc2nc([S+]([O-])Cc3ncc(C)cc3C)[nH]c2cc1C` (stereo not shown) [Example 12], the inhibition in vivo at 2 µmol/kg amounted to 70%.

Regarding `CC(=O)c1cc2nc([S+]([O-])Cc3ncc(C)cc3C)[nH]c2cc1C` (stereo not shown) [Example 7, 2-[2-(3,5-dimethyl)pyridylmethylsulfinyl]-(5-acetyl-6-methyl)benzimidazole], the inhibition in vivo at 2 µmol/kg came out at 100%. Turning to `COc1ccnc(C[S+]([O-])c2nc3cc(C(C)=O)c(C)cc3[nH]2)c1` (stereo not shown) [Example 9], the inhibition in vivo at 2 µmol/kg was 95%.

Consider `COC(=O)c1cc2nc([S+]([O-])Cc3cc(OC)ccn3)[nH]c2cc1C` (stereo not shown) [Example 14], for which the inhibition in vivo at 2 µmol/kg came out at 100%. As for `COC(=O)c1cc2nc([S+]([O-])Cc3nccc(C)c3C)[nH]c2cc1C` (stereo not shown) [Example 5], the inhibition in vivo at 2 µmol/kg stood at 90%.

Staying with this test, now noted: Canis lupus familiaris, dose 4 μmol/kg, read-out: Effect, % inhibition (peak inhibitory effect on gastric acid secretion).
Turning to `COC(=O)c1cc2nc([S+]([O-])Cc3ncc(C)c(C)c3C)[nH]c2cc1C` (stereo not shown) [Example 13], the inhibition in vivo at 4 µmol/kg was 80%. As to `COC(=O)c1ccc2[nH]c([S+]([O-])Cc3cc(C)c(C)cn3)nc2c1` (stereo not shown) [Example 3], the inhibition in vivo at 4 µmol/kg was determined as 100%.

`COC(=O)c1cc2nc([S+]([O-])Cc3ccc(C)cn3)[nH]c2cc1C` (stereo not shown) [* 5-COOCH3,6-CH3, H, H, H, CH3, reference compound]: the inhibition in vivo at 4 µmol/kg is 50%.

For `Cc1cnc(C[S+]([O-])c2nc3c(C)cc(C)cc3[nH]2)c(C)c1` (stereo not shown) [Example 6], the inhibition in vivo at 4 µmol/kg came to 40%. Same read-out and setting: to `CC(=O)c1cc2nc([S+]([O-])Cc3ncc(C)c(C)c3C)[nH]c2cc1C` (stereo not shown) [Example 8] belongs 100%; to `Cc1ccc(C[S+]([O-])c2nc3cc(C)ccc3[nH]2)nc1` (stereo not shown) [* 5-CH3, H, H, H, H, CH3, reference compound], 50%; to `CCOc1ccnc(C[S+]([O-])c2nc3cc(C(=O)OC)c(C)cc3[nH]2)c1` (stereo not shown) [Example 15], 75%. Still for that read-out and setting: to `COC(=O)c1cc2nc([S+]([O-])Cc3ncccc3Br)[nH]c2cc1C` (stereo not shown) [* 5-COOCH3,6-CH3, H, Br, H, H, reference compound] belongs 0%.

Staying with this test, now noted: Canis lupus familiaris, dose 8 μmol/kg, read-out: Effect, % inhibition (peak inhibitory effect on gastric acid secretion).
On to `CC(=O)c1cc2nc([S+]([O-])Cc3ccc(C)cn3)[nH]c2cc1C` (stereo not shown) [* 5-COCH3,6-CH3, H, H, H, CH3, reference compound], for which the inhibition in vivo at 8 µmol/kg is 80%.

The test is the same for the next values; noted with them: Canis lupus familiaris, dose 12 μmol/kg, read-out: Effect, % inhibition (peak inhibitory effect on gastric acid secretion).
In the case of `Cc1ccc(C[S+]([O-])c2nc3c(C)cc(C)cc3[nH]2)nc1` (stereo not shown) [* 4-CH3,6-CH3, H, H, H, CH3, reference compound], the inhibition in vivo at 12 µmol/kg was found to be 50%.

The test is the same for the next values; noted with them: Canis lupus familiaris, dose 20 μmol/kg, read-out: Effect, % inhibition (peak inhibitory effect on gastric acid secretion).
Consider `COC(=O)c1ccc2[nH]c([S+]([O-])Cc3ccc(C)cn3)nc2c1` (stereo not shown) [* 5-COOCH3, H, H, H, H, CH3, reference compound], for which the inhibition in vivo at 20 µmol/kg was 90%.

On to `COC(=O)c1ccc2[nH]c([S+]([O-])Cc3ccccn3)nc2c1` (stereo not shown) [* 5-COOCH3, H, H, H, H, H, reference compound], for which the inhibition in vivo at 20 µmol/kg worked out at 50%. On to `COc1ccc2[nH]c([S+]([O-])Cc3cc(C)ccn3)nc2c1` (stereo not shown) [* 5-OCH3, H, H, H, CH3, H, reference compound], for which the inhibition in vivo at 20 µmol/kg stood at 10%. Same read-out and setting: for `CC(=O)c1cc2nc([S+]([O-])Cc3cc(C)ccn3)[nH]c2cc1C` (stereo not shown) [* 5-COCH3,6-CH3, H, H, CH3, H, reference compound] the value was 30%.

For `CCc1ccc(C[S+]([O-])c2nc3cc(C(C)=O)ccc3[nH]2)nc1` (stereo not shown) [* 5-COCH3, H, H, H, H, C2 H5, reference compound], the inhibition in vivo at 20 µmol/kg amounted to 40%.

The record behind these values is US4255431A, “Gastric acid secretion inhibiting substituted 2-(2-benzimidazolyl)-pyridines, pharmaceutical preparations containing same, and method for inhibiting gastric acid secretion” (priority 1978, dated 1981).
